# According to patent US20140050669A1, “USE OF RADIOGRAPHIC CONTRAST AGENTS FOR DETECTING DENTAL CARIES” (Creighton University, priority 2011, published 2014):
# Key:
# [1] = x-ray contrast imaging of identified dental caries before and after topical intra-oral composition; conditions: 9 M sodium iodide in distilled water
# Experimental: A radiographic contrast imaging analysis using x-ray imaging was performed, comparing the imaging of identified dental caries before and after administration of a topical intra-oral composition comprising sodium iodide and distilled water according to the methods of the current invention. Specifically, an x-ray image of a tooth with identified dental caries was performed, without administering the topical intra-oral composition. This image was used as a control for determining the ability of typical x-ray images to detect dental caries in a patient. Subsequently, the same tooth was administered a composition comprising sodium iodide and distilled water, with the composition having a sodium iodide concentration of 9 molar. After administration of the composition to the tooth, x-ray images were obtained 20 seconds after administration and 16 minutes after administration. Further, an x-ray image of the tooth was taken 14 days after administration of the composition to determine if the composition continued to reside in the dental carious lesion. The images obtained are found in FIG. 1.
# [2] = x-ray imaging of cavitated surface versus sound healthy surface; conditions: 9 M sodium iodide solution, x-ray 2 minutes after administration
# Experimental: An experiment was performed to test the ability of the topical intra-oral compositions and methods to differentiate between cavitated surfaces (dental caries) and healthy, sound surfaces. Specifically, an x-ray image of a tooth with an identified cavitated surface on one side of the tooth and a sound surface on the other side was performed, without administering the topical intra-oral composition. This image was used as a control for determining the ability of the topical intra-oral compositions to selectively absorb into cavitated surfaces, rather than sound surfaces. Subsequently, the same tooth was administered a composition comprising sodium iodide and distilled water, with the composition having a sodium iodide concentration of 9 molar. After administration of the composition to the tooth, an x-ray image was obtained 2 minutes after administration. The results are illustrated in FIG. 2.
# [3] = x-ray imaging of cavitated lesion versus non-cavitated lesion; conditions: 9 M sodium iodide solution, x-ray 3 minutes after administration
# Experimental: An experiment was performed to test the ability of the topical intra-oral compositions and methods to differentiate between cavitated surfaces (a cavity) requiring treatment and non-cavitated lesions not requiring treatment. Specifically, an x-ray image of a tooth with an identified cavitated surface on the right side of the tooth and a non-cavitated lesion on the other side was performed, without administering the topical intra-oral composition. This image was used as a control for determining the ability of the topical intra-oral compositions to selectively absorb into cavitated lesions, rather than non-cavitated lesions. Subsequently, the same tooth was administered a composition comprising sodium iodide and distilled water, with the composition having a sodium iodide concentration of 9 molar. After administration of the composition to the tooth, an x-ray image was obtained 3 minutes after administration. The results are illustrated in FIG. 3.
# [4] = comparison of contrast agents applied in turn to the same tooth cavity, radiographic analysis
# Experimental: A 9M solution of sodium iodide (an ionic contrast agent) and a 76% solution of iopamidol (a non-ionic contrast agent) were administered. Each compound was applied in turn under identical conditions to the same tooth cavity and the tooth was radiographically analyzed as discussed above. After application and testing of each compound, the contrast was washed out from the tooth, and the tooth was tested radiographically to ensure there was no contrast remaining.
# A barium sulfate solution comprising 1 gram of barium sulfate in 0.5 ml distilled water was administered. The compound was applied, and the tooth was analyzed and compared to other contrast agents and to the control treated tooth as discussed in Example 4. After application and testing of each compound, the contrast was washed out from the tooth and the tooth was tested radiographically to ensure there was no contrast remaining.
# [5] = barium sulfate 96% w/w, radiograph 15 seconds after application
# Text: The radiograph was taken 15 seconds after barium sulfate (96% w/w) was applied.
structure (smiles),measurement,setting,value
[I-].[Na+] [sodium iodide],radiographic image of dental caries versus control image,[1]; x-ray 20 seconds after administration,enhanced radiographic image of dental caries
same,radiographic image of dental caries versus control image,[1]; x-ray 16 minutes after administration,enhanced radiographic image of dental caries
same,x-ray appearance of composition in the carious lesion,[1]; x-ray 14 days after administration,altered x-ray appearance
same,radiographic image of dental caries (cavitated surface),[2]; cavitated surface,enhanced radiographic image of dental caries
same,effect on imaging of sound tooth surfaces,[2]; sound surface,does not affect the imaging of sound tooth surfaces
same,radiographic image of cavitated lesion (cavity),[3]; cavitated lesion,enhanced radiographic image of a cavitated lesion
same,effect on imaging of non-cavitated lesions,[3]; non-cavitated lesion,does not affect the imaging of non-cavitated lesions
same,radiographic contrast enhancement of tooth cavity,[4]; 9M solution of sodium iodide,produced radiographic contrast enhancement revealing tooth cavitation
O=S(=O)([O-])[O-].[Ba+2] [barium sulfate],radiographic contrast enhancement of tooth cavity,[4]; 1 gram of barium sulfate in 0.5 ml distilled water,produced radiographic contrast enhancement revealing tooth cavitation
same,radiographic image of shallow cavity,[5],image showing a shallow cavity
C[C@H](O)C(=O)Nc1c(I)c(C(=O)NC(CO)CO)c(I)c(C(=O)NC(CO)CO)c1I [iopamidol],radiographic contrast enhancement of tooth cavity,[4]; 76% solution of iopamidol,produced radiographic contrast enhancement revealing tooth cavitation
